Measured values from patent US7838542B2, “Bicyclic compositions and methods for modulating a kinase cascade” (Kinex Pharmaceuticals, LLC, priority 2006, dated 2010).
Entries after “also recorded” stand apart in the source; their conditions may differ. Blank lines part the entries; values can stand above or below the molecule they belong to. Numbered stars: 1 amine (or outer) side, 2 acyl side, 3 side chain; on linkers, the order of the positions; unused ones are H or OH. Square brackets hold non-standard residues; d marks the D form. Peptide text beside a SMILES is read from it. X2 = O=C([C@H](CNS(=O)(=O)O)N[*:1])[*:2]; X3 = O=C([C@H](CB(O)O)N[*:1])[*:2]

Legend:
SCID mice = details: mouse, in vivo, ip
pp60^c-src = pp60^c-src (Homo sapiens, UniProt P12931); assay: Src inhibition (RR-SRC phosphorylation), Cellular Mimetic assay; details: for mode of inhibition with respect to ATP: IC50 or % inhibition monitored at ATP increased up to 1 mM; for % Inhibition of 2 mM RR-src at Inhibitor Concentration (1 mM): inhibitor 1 mM; for % Inhibition of 2 mM RR-src at Inhibitor Concentration (100 μM): inhibitor 100 μM
Sequence of pp60^c-src (P12931 whole entry): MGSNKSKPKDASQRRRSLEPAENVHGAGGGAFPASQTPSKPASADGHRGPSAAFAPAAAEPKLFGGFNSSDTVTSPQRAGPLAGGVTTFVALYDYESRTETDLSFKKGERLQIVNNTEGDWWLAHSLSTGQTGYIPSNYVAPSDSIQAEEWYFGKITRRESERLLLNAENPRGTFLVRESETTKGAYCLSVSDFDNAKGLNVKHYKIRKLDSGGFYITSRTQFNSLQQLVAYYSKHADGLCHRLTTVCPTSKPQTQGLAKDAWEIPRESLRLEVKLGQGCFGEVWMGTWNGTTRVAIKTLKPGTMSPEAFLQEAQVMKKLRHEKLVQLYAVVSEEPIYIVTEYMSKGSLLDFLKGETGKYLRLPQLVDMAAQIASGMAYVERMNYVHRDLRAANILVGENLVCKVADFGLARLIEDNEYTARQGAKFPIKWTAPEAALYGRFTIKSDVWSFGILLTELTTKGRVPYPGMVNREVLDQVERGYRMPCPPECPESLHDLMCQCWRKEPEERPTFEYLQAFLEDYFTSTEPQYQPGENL

PKA [1] = molecular target: T1, PKA (Homo sapiens, UniProt P17612); assay: PKA inhibition, Literature Mimetic assay; assay type: biochemical; details: Literature Mimetic assay conditions
Text: (§1) The boronic acid inhibitors 21-24 have two Arg's in their sequence also and therefore will bind to the phosphocellulose paper in addition to Kemptamide (although not as consistently or completely due to one less positive charge). Consequently, when analyzed as inhibitors, the amount of phosphorylated Kemptamide produced was not only counted, but also the amount of phosphorylated inhibitor simultaneously produced (e.g. see 26 below). The net result is that distorted IC50 curves are obtained which show net “stimulation” at higher inhibitor concentrations in some cases. […] The underlying substrate behavior of these “inhibitors” makes an accurate measurement of their inhibition potency impossible with the current assay. However, it does appear from the data that homologating the boronic acid functionality out with only CH2 groups (homologations with boronic acid non-peptide Src inhibitors may also be carried out) decreases the binding affinity and ability to function as a substrate.

PKA [2] = molecular target: T1, PKA; assay: PKA inhibition, Cellular Mimetic assay; assay type: biochemical; details: Cellular Mimetic assay conditions
Text: as §1

PKA [3] = molecular target: T1, PKA; assay: STAIRe method: form of the protein kinase the inhibitor binds best to; assay type: biochemical
Text: This was a somewhat surprising result since these inhibitors are analogs of the “end product inhibitors” 1 and 12 which must bind simultaneously with MgADP just following phosphate transfer in the generally accepted reaction mechanism for protein kinases.

[4] = test system: normal rat kidney (NRK) cells; assay: NRK non-transformed cell growth; assay type: cell-based
Description: (§2) Active Src inhibitors can be studied in a set of side-by-side cell-based assays using normal rat kidney (NRK) cells and a temperature-sensitive pp60^v-Src transformant of this cell line (LA25). The LA25 transformant engages in anchorage- and serum-independent growth at the “permissive” temperature of 33° C. due to activation of pp60^v-src but not at the “non-permissive” temperature of 40° C. at which pp60^v-src is not activated (Li et al., 1996). The use of this pair of closely related cell lines for testing the Src inhibitors at both the permissive and non-permissive temperatures allows one to determine if a given Src inhibitor is blocking cell growth due to specific blockade of the Src signaling pathway, by a different mechanism or by a general cytotoxic effect.
(§3) As shown in this graph the growth of the LA25 cells at the permissive temperature of 33° C. is inhibited by ca. 50% at a 25 μM concentration of 43-meta relative to the LA25 cell growth at the non-permissive 40° C. as a control. […] Since the 43-meta solutions were prepared with a low concentration of DMSO for solubilization, a DMSO control was also run at the same concentration.

[5] = test system: LA25 cells (temperature-sensitive pp60^v-Src transformant of NRK); assay: LA25 cell growth at permissive and non-permissive temperature; assay type: cell-based, rat
Description: as §2, §3

DU-145 = assay: NIH 60-tumor cell panel assay, DU-145; assay type: cell-based; details: read-out: growth inhibition IC50, DU-145
PC-3 = assay: NIH 60-tumor cell panel assay, PC-3; assay type: cell-based; details: read-out: growth inhibition IC50, PC-3
Text: The initial non-peptide Src inhibitors have also shown very encouraging results in four different series of cell culture assays. 1) In the NIH 60-tumor cell panel assay, broad activity (as one would expect for a Src inhibitor) was seen against the tumor cell lines, including the prostate lines. […] 3) The Src inhibitors were compared to the cancer drugs etoposide, taxol, doxorubicin and cisplatin in ovarian tumors from three different patients and an abdominal carcinoma from another patient. […] 5) Two of the Src inhibitors were also tested for inhibition of ts v-Src stimulated LA25 cell growth. […] 6) Two of the Src inhibitors were also tested for inhibition of normal rat kidney cell growth.

Structure (SMILES): O=C(NCc1cccc(O)c1)c1cc2cc(F)ccc2[nH]1 [Compound 1a]
toxicity in MTD study (weight loss) (SCID mice): less toxic in mice than compound 2k

melting point: 239 to 241 °C
Structure (SMILES): O=C(NCc1cccc(F)c1)c1cc2cc(F)ccc2[nH]1 [Compound 1z]

IC50 (pp60^c-src; Table X): 16 µM
Structure (SMILES): O=C(Nc1cccc(O)c1)c1cc2ccc(O)cc2cc1O [Compound 3]

Structure (SMILES): CC[C@H](C)[C@H](NC(=O)[C@H](CNS(=O)(=O)O)NC(=O)CNC(=O)[C@H](CCCNC(=N)N)NC(=O)[C@H](CCCNC(=N)N)NC(C)=O)C(N)=O [Compound 8] (Ac-RRG[X2]I-NH2)
times tighter binding than end product phosphate inhibitor 1 (PKA [1]): 31 ×
times tighter binding than end product phosphate inhibitor 1 (PKA [2]): 108 ×
nucleotide form of the kinase bound best (STAIRe) (PKA [3]): bind best when MgATP (not MgADP or no nucleotide) is also bound

inhibition at 100 µM (pp60^c-src; read-out: % Inhibition at 100 μM (std. dev.), inhibitor 100 μM, Table IX): 14%
Structure (SMILES): CC[C@H](C)[C@H](NC(=O)[C@H](CB(O)O)NC(=O)CNC(=O)[C@H](CCCNC(=N)N)NC(=O)[C@H](CCCNC(=N)N)NC(C)=O)C(N)=O [Compound 21] (Ac-RRG[X3]I-NH2)

Structure (SMILES): OB(O)c1ccc2ccccc2c1 [Compound 27, 2-naphthalene boronic acid]
mode of inhibition with respect to ATP (pp60^c-src): not ATP-competitive inhibitors; also recorded: NON-ATP COMPETITIVE

IC50 (pp60^c-src; Table IV): 1600 µM
Ki (pp60^c-src; Table IV): 963 µM
% Inhibition of 2 mM RR-src at Inhibitor Concentration (1 mM) (pp60^c-src; Table IV): 31%
Structure (SMILES): O=S(=O)(O)Nc1ccc2ccccc2c1 [Compound 28]
mode of inhibition with respect to ATP (pp60^c-src): not ATP-competitive inhibitors; also recorded: NON-ATP COMPETITIVE

% Inhibition of 2 mM RR-src at Inhibitor Concentration (1 mM) (pp60^c-src; Table IV): 0 (1 mM) %
Structure (SMILES): O=S(=O)(O)c1ccc2ccccc2c1 [Compound 29]

% Inhibition of 2 mM RR-src at Inhibitor Concentration (100 μM) (pp60^c-src; Table IV): 0 (100 μM) %
Structure (SMILES): NS(=O)(=O)c1ccc2ccccc2c1 [Compound 31]

% Inhibition of 2 mM RR-src at Inhibitor Concentration (100 μM) (pp60^c-src; Table IV): 0 (100 μM) %
Structure (SMILES): OB(O)c1cccc2ccccc12 [Compound 32]

Structure (SMILES): O=P(O)(O)c1cccc2ccccc12 [Compound 33]
% Inhibition of 2 mM RR-src at Inhibitor Concentration (1 mM) (pp60^c-src; Table IV): 1 (1 mM) %

% Inhibition of 2 mM RR-src at Inhibitor Concentration (100 μM) (pp60^c-src; Table IV): 0 (100 μM) %
Structure (SMILES): NS(=O)(=O)c1cccc2ccccc12 [Compound 34]

% Inhibition of 2 mM RR-src at Inhibitor Concentration (100 μM) (pp60^c-src; Table IV): 10 (100 μM) %
Structure (SMILES): OB(O)c1cc2ccccc2o1 [Compound 35]

% Inhibition of 2 mM RR-src at Inhibitor Concentration (100 μM) (pp60^c-src; Table IV): 12 (100 μM) %
Structure (SMILES): OB(O)c1cc2ccccc2s1 [Compound 36]

Structure (SMILES): O=C(Nc1cccc(O)c1)c1cc2ccc(O)cc2cc1O [Compound 43-meta]
normal growth of the parent non-transformed cells [4]: without inhibiting the normal growth of the parent non-transformed cells
cell toxicity ([4]; up to 400 μM, NRK cells, LA25 cells at 40° C. and at 33° C.): lack of cell toxicity
v-Src induced (Src stimulated) LA25 cell growth [5]: specifically blocked the v-Src induced cell growth
inhibition at 25 µM ([5]; Rattus norvegicus, read-out: inhibition of growth of LA25 cells at the permissive temperature of 33° C., 25 μM, relative to LA25 growth at non-permissive 40° C.): ~50%

Structure (SMILES): O=C(Nc1cccc(O)c1)c1cc2cccc(O)c2cc1O [Compound 45]
normal growth of the parent non-transformed cells [4]: without inhibiting the normal growth of the parent non-transformed cells
v-Src induced (Src stimulated) LA25 cell growth [5]: specifically blocked the v-Src induced cell growth

Structure (SMILES): O=C(NCc1cccc(O)c1)c1cc2cc(O)ccc2[nH]1 [Compound 49-meta]
IC50 (DU-145): > 100 µM
IC50 (PC-3): 39 µM
